Test results from ChEMBL document CHEMBL1138176, “Synthesis and structure-activity relationship of small-molecule malonyl coenzyme A decarboxylase inhibitors” (J Med Chem, 2006).
In brackets after ≈: the same amount, converted by molar mass. Activity calls are given as the source filed them. The rule behind the calls is not given here.

Assays:
[1] = Stability in human liver microsomes at 5 uM
[2] = Caco-2 cell membrane permeability; conditions: human
[3] = Solubility in PBS at pH 7.4
[4] = Stability in rat liver microsomes at 5 uM
[5] = target: T1, Malonyl-CoA decarboxylase, mitochondrial (Homo sapiens, UniProt O95822); experiment: Inhibition of MCD at 10 uM
T1 sequence (O95822 whole entry): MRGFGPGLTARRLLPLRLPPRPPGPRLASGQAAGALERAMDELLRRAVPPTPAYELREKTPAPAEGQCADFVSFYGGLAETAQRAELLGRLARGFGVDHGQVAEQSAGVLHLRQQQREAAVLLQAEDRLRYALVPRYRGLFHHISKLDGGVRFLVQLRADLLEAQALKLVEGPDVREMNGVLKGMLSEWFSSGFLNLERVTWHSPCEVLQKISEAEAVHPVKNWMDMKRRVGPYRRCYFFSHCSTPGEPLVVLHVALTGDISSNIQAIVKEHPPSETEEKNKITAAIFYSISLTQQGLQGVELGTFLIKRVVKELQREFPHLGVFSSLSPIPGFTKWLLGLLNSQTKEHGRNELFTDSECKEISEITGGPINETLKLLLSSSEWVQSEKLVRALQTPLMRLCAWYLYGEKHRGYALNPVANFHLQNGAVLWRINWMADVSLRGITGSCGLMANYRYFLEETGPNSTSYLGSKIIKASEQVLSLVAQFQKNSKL

Sus scrofa = species on record: Sus scrofa; experiment: Decrease in lactate production in ischemic pig heart; assay type: functional, organism-based

remaining at 5 µM [1]	Papp [2]	solubility [3]	remaining at 5 µM [4]	IC50 [5]	SMILES	Activity (Sus scrofa)
51%	49.4 ×10⁻⁶ cm/s	187 µM (≈ 80.6 µg/mL)	7%		CCN(CCCCO)C(=O)N(CC)c1ccc(C(O)(C(F)(F)F)C(F)(F)F)cc1	
87%	68.2 ×10⁻⁶ cm/s	189 µM (≈ 75.8 µg/mL)	9%		CCN(C(=O)N1CCOCC1)c1ccc(C(O)(C(F)(F)F)C(F)(F)F)cc1	
				Not Active	O=C(Nc1ccc(C(O)(C(F)(F)F)C(F)(F)F)cc1)N1CCOCC1	
					COC(=O)CCCCN(C(=O)N1CCOCC1)c1ccc(C(O)(C(F)(F)F)C(F)(F)F)cc1	Active
99%		206 µM (≈ 97.1 µg/mL)	108%		O=C(O)CCCCN(C(=O)N1CCOCC1)c1ccc(C(O)(C(F)(F)F)C(F)(F)F)cc1	
				Not Active	O=C(Nc1ccccc1)Nc1ccc(C(O)(C(F)(F)F)C(F)(F)F)cc1	
				Not Active	CC(C)C(=O)Nc1ccc(C(O)(C(F)(F)F)C(F)(F)F)cc1	
93%	38.7 ×10⁻⁶ cm/s	8.7 µM (≈ 3.62 µg/mL)	66%		CCN(C(=O)c1ccc(C#N)cc1)c1ccc(C(O)(C(F)(F)F)C(F)(F)F)cc1	
